From ChEMBL document CHEMBL6074684, “Structure-activity relationship study of novel evodiamine amino acid conjugates with potent anti-colorectal cancer efficacy” (Eur J Med Chem, 2025)

Assays:
Format in all cases: functional, cell-based
[1] = tested on: SGC-7901; experiment: Antiproliferative activity against human SGC-7901 cells assessed as inhibition of cell growth incubated for 72 hrs by MTT assay; conditions: SGC-7901, 72 h
[2] = tested on: HCT-116; experiment: Antiproliferative activity against human […] cells assessed as inhibition of cell growth incubated for 72 hrs by MTT assay; conditions: HCT-116, 72 h
[3] = tested on: SK-HEP1; experiment: Antiproliferative activity against human SK-HEP1 cells assessed as inhibition of cell growth incubated for 72 hrs by MTT assay; conditions: SK-HEP1, 72 h
[4] = tested on: Huh-7; experiment: Antiproliferative activity against human Huh-7 cells assessed as inhibition of cell growth incubated for 72 hrs by MTT assay; conditions: Huh-7, 72 h
[5] = tested on: MGC-803; experiment: Antiproliferative activity against human MGC-803 cells assessed as inhibition of cell growth incubated for 72 hrs by MTT assay; conditions: MGC-803, 72 h
[6] = tested on: MCF7; experiment: Antiproliferative activity against human MCF7 cells assessed as inhibition of cell growth incubated for 72 hrs by MTT assay; conditions: MCF7, 72 h
[7] = tested on: HT-29; experiment: Antiproliferative activity against human HT-29 cells assessed as inhibition of cell growth incubated for 72 hrs by MTT assay; conditions: HT-29, 72 h
[8] = tested on: RKO; experiment: Antiproliferative activity against human RKO cells assessed as inhibition of cell growth incubated for 72 hrs by MTT assay
[9] = tested on: LoVo; experiment: Antiproliferative activity against human LoVo cells assessed as inhibition of cell growth incubated for 72 hrs by MTT assay
[10] = tested on: HGC-27; experiment: Antiproliferative activity against human HGC-27 cells assessed as inhibition of cell growth incubated for 72 hrs by MTT assay; conditions: HGC-27, 72 h

IC50 [1] [nM]	IC50 [2] [nM]	IC50 [3] [µM]	IC50 [4] [µM]	IC50 [5] [nM]	IC50 [6] [µM]	IC50 [7] [nM]	IC50 [9] [nM]	SMILES	IC50 [8] [nM]	IC50 [10] [µM]
47700	26200	37.8	11.8	15900	47.3	30500	15700	CC(C)(C)OC(=O)N[C@@H](Cc1ccccc1)C(=O)Oc1ccc2[nH]c3c(c2c1)CCN1C(=O)c2cc(F)ccc2N(c2cccc(F)c2)[C@@H]31	19500	22.7
690	370	0.65	0.14	320	1.1	190	220	CC(C)C[C@H](NC(=O)OC(C)(C)C)C(=O)Oc1ccc2[nH]c3c(c2c1)CCN1C(=O)c2cc(F)ccc2N(c2cccc(F)c2)[C@H]31	150	0.3
41800	16800	35.1	9.73	7560	22.7	21400	10200	CC(C)C[C@H](NC(=O)OC(C)(C)C)C(=O)Oc1ccc2[nH]c3c(c2c1)CCN1C(=O)c2cc(F)ccc2N(c2cccc(F)c2)[C@@H]31	10500	18.6
490	360	0.77	0.2	220	0.95	430	230	CC(C)(C)OC(=O)N[C@@H](Cc1ccccc1)C(=O)Oc1ccc2[nH]c3c(c2c1)CCN1C(=O)c2cc(F)ccc2N(c2cccc(F)c2)[C@H]31	90	0.28
540	400	0.65	0.3	410	0.83	380	190	CC(C)(C)OC(=O)N[C@@H](COCc1ccccc1)C(=O)Oc1ccc2[nH]c3c(c2c1)CCN1C(=O)c2cc(F)ccc2N(c2cccc(F)c2)[C@H]31	110	0.32
480	200	1.39	0.16	210	1.19	260	170	CC(C)(C)OC(=O)NCC(=O)Oc1ccc2[nH]c3c(c2c1)CCN1C(=O)c2cc(F)ccc2N(c2cccc(F)c2)[C@H]31	95	0.2
1480	280	0.9	0.4	690	1.28	540	250	CC(C)(C)OC(=O)N[C@@H](Cc1c[nH]c2ccccc12)C(=O)Oc1ccc2[nH]c3c(c2c1)CCN1C(=O)c2cc(F)ccc2N(c2cccc(F)c2)[C@H]31	80	0.33
46100	20200	38.5	13.8	17800	50.5	28700	14900	CSCC[C@H](NC(=O)OC(C)(C)C)C(=O)Oc1ccc2[nH]c3c(c2c1)CCN1C(=O)c2cc(F)ccc2N(c2cccc(F)c2)[C@@H]31	20500	28.6
	350					180	130	O=C1c2cc(F)ccc2N(c2cccc(F)c2)[C@H]2c3[nH]c4ccc(O)cc4c3CCN12	100	
1570	550	0.97	0.31	480	0.81	440	320	CCC(C)[C@H](NC(=O)OC(C)(C)C)C(=O)Oc1ccc2[nH]c3c(c2c1)CCN1C(=O)c2cc(F)ccc2N(c2cccc(F)c2)[C@H]31 (some centres undefined)	230	0.52
66500	21000	33.5	12.8	15500	47	28300	12400	CC(C)(C)OC(=O)N[C@@H](Cc1cnc[nH]1)C(=O)Oc1ccc2[nH]c3c(c2c1)CCN1C(=O)c2cc(F)ccc2N(c2cccc(F)c2)[C@@H]31	16300	23.7
42600	33100	30.5	17.2	29600	38.9	24100	26400	CC(C)(C)OC(=O)NCC(=O)Oc1ccc2[nH]c3c(c2c1)CCN1C(=O)c2cc(F)ccc2N(c2cccc(F)c2)[C@@H]31	38600	32.1
630	370	2.65	0.16	310	1.98	280	230	C[C@H](NC(=O)OC(C)(C)C)C(=O)Oc1ccc2[nH]c3c(c2c1)CCN1C(=O)c2cc(F)ccc2N(c2cccc(F)c2)[C@H]31	120	0.27
230	360	0.77	0.27	200	0.74	360	120	CC(C)(C)OC(=O)N[C@@H](Cc1cnc[nH]1)C(=O)Oc1ccc2[nH]c3c(c2c1)CCN1C(=O)c2cc(F)ccc2N(c2cccc(F)c2)[C@H]31	110	0.16
57100	24600	35.9	10.1	16200	22.1	29400	15300	CC(C)(C)OC(=O)N[C@@H](COCc1ccccc1)C(=O)Oc1ccc2[nH]c3c(c2c1)CCN1C(=O)c2cc(F)ccc2N(c2cccc(F)c2)[C@@H]31	16800	20.6
67300	24200	36.6	13.5	18600	30.6	30200	18300	CC(C)(C)OC(=O)N[C@@H](Cc1c[nH]c2ccccc12)C(=O)Oc1ccc2[nH]c3c(c2c1)CCN1C(=O)c2cc(F)ccc2N(c2cccc(F)c2)[C@@H]31	15900	25.6
44300	29000	37.8	14.2	20800	30.4	25800	21900	CC(C)[C@H](NC(=O)OC(C)(C)C)C(=O)Oc1ccc2[nH]c3c(c2c1)CCN1C(=O)c2cc(F)ccc2N(c2cccc(F)c2)[C@@H]31	11900	22.3
510	360	0.68	0.21	330	0.78	330	200	CSCC[C@H](NC(=O)OC(C)(C)C)C(=O)Oc1ccc2[nH]c3c(c2c1)CCN1C(=O)c2cc(F)ccc2N(c2cccc(F)c2)[C@H]31	140	0.21
> 100000	> 100000	62.4	46	> 100000	69.8	52500	55800	CCC(C)[C@H](NC(=O)OC(C)(C)C)C(=O)Oc1ccc2[nH]c3c(c2c1)CCN1C(=O)c2cc(F)ccc2N(c2cccc(F)c2)[C@@H]31 (some centres undefined)	> 100000	55.7
40200	18200	26.6	11.7	11300	28.5	18600	19700	C[C@H](NC(=O)OC(C)(C)C)C(=O)Oc1ccc2[nH]c3c(c2c1)CCN1C(=O)c2cc(F)ccc2N(c2cccc(F)c2)[C@@H]31	15900	20.3
810	430	1.15	0.28	380	0.98	340	290	CC(C)[C@H](NC(=O)OC(C)(C)C)C(=O)Oc1ccc2[nH]c3c(c2c1)CCN1C(=O)c2cc(F)ccc2N(c2cccc(F)c2)[C@H]31	200	0.42
